According to ChEMBL document CHEMBL4371002 (J Med Chem, 2018):

target: Prothrombin (Homo sapiens, UniProt P00734)

SMILES	Ki
N=C(N)c1ccc([C@H]2[C@H]3C(=O)N(Cc4cccc(F)c4)C(=O)[C@H]3[C@@H]3CCCN32)cc1	360 nM
N=C(N)c1ccc([C@H]2[C@H]3C(=O)N(Cc4ccccc4F)C(=O)[C@H]3[C@@H]3CCCN32)cc1	500 nM
N=C(N)c1ccc([C@H]2[C@H]3C(=O)N(Cc4ccc(F)cc4F)C(=O)[C@H]3[C@@H]3CCCN32)cc1	260 nM
N=C(N)c1ccc([C@H]2[C@H]3C(=O)N(Cc4ccc(Cl)cc4)C(=O)[C@H]3[C@@H]3CCCN32)cc1	190 nM
N=C(N)c1ccc([C@H]2[C@H]3C(=O)N(Cc4cccc(F)c4F)C(=O)[C@H]3[C@@H]3CCCN32)cc1	490 nM

target: Procathepsin L (Homo sapiens, UniProt P07711)
Sequence (P07711 whole entry): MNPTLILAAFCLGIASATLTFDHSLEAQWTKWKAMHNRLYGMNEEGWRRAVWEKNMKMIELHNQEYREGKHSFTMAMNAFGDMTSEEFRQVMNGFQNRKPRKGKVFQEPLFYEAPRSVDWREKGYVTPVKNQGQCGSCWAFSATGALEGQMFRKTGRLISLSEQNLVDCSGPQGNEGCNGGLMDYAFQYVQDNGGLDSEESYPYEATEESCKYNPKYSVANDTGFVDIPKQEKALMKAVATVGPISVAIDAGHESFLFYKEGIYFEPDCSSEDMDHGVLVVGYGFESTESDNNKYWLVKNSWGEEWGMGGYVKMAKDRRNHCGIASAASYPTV

SMILES	Ki
N#Cc1nc(N2CCOCC2)nc(N(Cc2c(F)cccc2F)C2CCCC2)n1	100 nM
N#Cc1nc(N2CCOCC2)nc(N(Cc2ncccn2)C2CCCC2)n1	398 nM
N#Cc1nc(N2CCOCC2)nc(N(Cc2cccnc2)C2CCCC2)n1	100 nM
N#Cc1nc(N2CCOCC2)nc(N(Cc2cnccn2)C2CCCC2)n1	158 nM
N#Cc1nc(N2CCOCC2)nc(N(Cc2ccncc2)C2CCCC2)n1	158 nM
N#Cc1nc(N2CCOCC2)nc(N(Cc2ccncn2)C2CCCC2)n1	251 nM
